Measured values published in the RepoRT retention time repository (doi:10.1016/j.jchromb.2020.122105).

What was measured:
Conditions in all cases: stereoisomer not certain
[1] = RP, Waters CORTECS T3, 100 × 2.1 mm, 2.7 µm, 0.3 mL/min, estimated dead time 0.73 min; A: water + 0.1% formic acid, pH 3; B: methanol + 0.1% formic acid, pH 3; gradient (min/%B) 0/0 1/0 6/5 30/100 35/100 35.1/0 40/0
[2] = RP, Waters ACQUITY UPLC BEH C18, 100 × 2.1 mm, 1.7 µm, 0.1 mL/min, estimated dead time 2.2 min; A: water + 0.1% formic acid, pH 3; B: methanol + 0.1% formic acid, pH 3; gradient (min/%B) 0/5 5/5 25/100 30/100 30.1/5 35/5
[3] = RP, Waters CORTECS T3, 100 × 2.1 mm, 2.7 µm, 0.3 mL/min, estimated dead time 0.73 min; A: water + 0.1% formic acid, pH 3; B: methanol + 0.1% formic acid, pH 3; gradient (min/%B) 0/5 5/5 25/95 25.1/100 35/100 35.1/5 45/5
[4] = RP, Waters ACQUITY UPLC BEH C18, 100 × 2.1 mm, 1.7 µm, 0.1 mL/min, estimated dead time 2.2 min; A: water + 0.1% formic acid, pH 3; B: methanol + 0.1% formic acid, pH 3; gradient (min/%B) 0/5 5/5 25/95 25.1/100 35/100 35.1/5 45/5
[5] = RP, Waters CORTECS T3, 100 × 2.1 mm, 2.7 µm, 0.2 mL/min, estimated dead time 1.1 min; A: water + 0.1% formic acid, pH 3; B: methanol + 0.1% formic acid, pH 3; gradient (min/%B) 0/0 1/0 6/5 30/100 35/100 35.1/0 40/0
[6] = RP, Waters CORTECS T3, 100 × 2.1 mm, 2.7 µm, 0.3 mL/min, estimated dead time 0.73 min; A: water + 0.1% formic acid, pH 3; B: methanol + 0.1% formic acid, pH 3; gradient (min/%B) 0/0 5/0 25/100 30/100 30.1/0 35/0
[7] = HILIC, Merck SeQuant ZIC-HILIC, 150 × 2.1 mm, 5 µm, 0.75 mL/min, estimated dead time 0.44 min; A: water + 10 mM ammonium formate, pH 6; B: 5% water + 95% acetonitrile + 10 mM ammonium formate, pH 6; gradient (min/%B) 0/95 5/95 20/57 25/57 30/95 40/95
[8] = RP, Waters CORTECS T3, 100 × 2.1 mm, 2.7 µm, 0.15 mL/min, estimated dead time 1.5 min; A: water + 0.1% formic acid, pH 3; B: methanol + 0.1% formic acid, pH 3; gradient (min/%B) 0/0 1/0 6/5 30/100 35/100 35.1/0 40/0
[9] = RP, Thermo Scientific Hypercarb, 150 × 2.1 mm, 5 µm, 0.1 mL/min, estimated dead time 3.3 min; A: water + 0.1% formic acid, pH 3; B: methanol + 0.1% formic acid, pH 3; gradient (min/%B) 0/5 5/5 20/100 35/100 35.1/5 45/5
[10] = RP, Waters CORTECS T3, 100 × 2.1 mm, 2.7 µm, 0.1 mL/min, estimated dead time 2.2 min; A: water + 0.1% formic acid, pH 3; B: methanol + 0.1% formic acid, pH 3; gradient (min/%B) 0/0 1/0 6/5 30/100 35/100 35.1/0 40/0
[11] = RP, Waters ACQUITY UPLC BEH C18, 100 × 2.1 mm, 1.7 µm, 0.2 mL/min, estimated dead time 1.1 min; A: water + 0.025% formic acid + 20 mM ammonium acetate + 0.055% ammonium hydroxide, pH 7; B: methanol; gradient (min/%B) 0/5 5/5 25/100 30/100 30.1/5 35/5
[12] = RP, Waters CORTECS T3, 100 × 2.1 mm, 2.7 µm, 0.3 mL/min, estimated dead time 0.73 min; A: water + 0.1% formic acid, pH 3; B: methanol + 0.1% formic acid, pH 3; gradient (min/%B) 0/5 5/5 25/100 30/100 30.1/5 35/5
[13] = RP, Waters CORTECS T3, 100 × 2.1 mm, 2.7 µm, 0.1 mL/min, estimated dead time 2.2 min; A: water + 0.1% formic acid, pH 3; B: methanol + 0.1% formic acid, pH 3; gradient (min/%B) 0/5 5/5 25/95 25.1/100 35/100 35.1/5 45/5
[14] = RP, Waters CORTECS T3, 100 × 2.1 mm, 2.7 µm, 0.25 mL/min, estimated dead time 0.88 min; A: water + 0.1% formic acid, pH 3; B: methanol + 0.1% formic acid, pH 3; gradient (min/%B) 0/0 1/0 6/5 30/100 35/100 35.1/0 40/0
[15] = RP, Waters ACQUITY UPLC BEH C18, 100 × 2.1 mm, 1.7 µm, 0.1 mL/min, estimated dead time 2.2 min; A: water + 0.045% formic acid + 0.11% ammonium hydroxide, pH 7; B: methanol; gradient (min/%B) 0/5 5/5 25/95 25.1/100 35/100 35.1/5 45/5
[16] = RP, Waters CORTECS T3, 100 × 2.1 mm, 2.7 µm, 0.2 mL/min, estimated dead time 1.1 min; A: water + 0.045% formic acid + 0.11% ammonium hydroxide, pH 7; B: methanol; gradient (min/%B) 0/5 5/5 25/95 25.1/100 35/100 35.1/5 45/5
[17] = RP, Waters CORTECS T3, 100 × 2.1 mm, 2.7 µm, 0.2 mL/min, estimated dead time 1.1 min; A: water + 0.1% formic acid, pH 3; B: methanol + 0.1% formic acid, pH 3; gradient (min/%B) 0/5 5/5 25/95 25.1/100 35/100 35.1/5 45/5
[18] = RP, Waters ACQUITY UPLC BEH C18, 100 × 2.1 mm, 1.7 µm, 0.2 mL/min, estimated dead time 1.1 min; A: water + 0.1% formic acid, pH 3; B: methanol + 0.1% formic acid, pH 3; gradient (min/%B) 0/5 5/5 25/100 30/100 30.1/5 35/5
[19] = RP, Waters ACQUITY UPLC BEH C18, 100 × 2.1 mm, 1.7 µm, 0.1 mL/min, estimated dead time 2.2 min; A: water + 0.1% formic acid, pH 3; B: methanol + 0.1% formic acid, pH 3; gradient (min/%B) 0/5 5/5 25/95 25.1/100 35/100 35.1/5 45/5; remark: listed apart in the source
[20] = HILIC, Waters XBridge BEH Amide, 100 × 2.1 mm, 2.5 µm, 0.5 mL/min, estimated dead time 0.44 min; A: water + 0.1% acetic acid + 10 mM ammonium acetate, pH 4; B: 5% water + 95% acetonitrile + 0.1% acetic acid + 10 mM ammonium acetate, pH 4; gradient (min/%B) 0/95 5/95 20/57 25/57 30/95 40/95
[21] = HILIC, Merck SeQuant ZIC-HILIC, 150 × 2.1 mm, 5 µm, 0.75 mL/min, estimated dead time 0.44 min; A: water + 0.1% acetic acid + 10 mM ammonium acetate, pH 4; B: 5% water + 95% acetonitrile + 0.1% acetic acid + 10 mM ammonium acetate, pH 4; gradient (min/%B) 0/95 5/95 20/57 25/57 30/95 40/95
[22] = RP, Waters ACQUITY UPLC BEH C18, 100 × 2.1 mm, 1.7 µm, 0.2 mL/min, estimated dead time 1.1 min; A: water + 0.025% formic acid + 20 mM ammonium acetate + 0.055% ammonium hydroxide, pH 7; B: methanol; gradient (min/%B) 0/5 5/5 25/100 30/100 30.1/5 35/5; remark: listed apart in the source

Row | SMILES | LC retention time [1] [min] | LC retention time [2] [min] | LC retention time [3] [min] | LC retention time [4] [min] | LC retention time [5] [min] | LC retention time [6] [min] | LC retention time [8] [min] | LC retention time [9] [min] | LC retention time [10] [min] | LC retention time [11] [min] | LC retention time [12] [min] | LC retention time [13] [min] | LC retention time [14] [min] | LC retention time [15] [min] | LC retention time [16] [min] | also measured
1 | CC1NCCc2cc(O)c(O)cc21 (stereo not given) [1-METHYL-6,7-DIHYDROXY-1,2,3,4-TETRAHYDROISOQUINOLINE] | 0.92 | 2.74 | 0.9 | 2.66 | 1.34 | 0.93 | 1.83 | 17.8 | – | – | – | – | – | – | – | LC retention time [7]: 8.92 min
2 | C=Cc1c(C)c2cc3[nH]c(cc4nc(cc5nc(cc1[nH]2)C(C)=C5CCC(=O)O)C(CCC(=O)O)=C4C)c(C)c3C=C [PROTOPORPHYRIN] | 29.7 | 29.5 | 26.1 | 30.2 | 30.7 | 25.3 | 31.9 | – | 26.5 | 25.4 | 25.1 | 30.1 | 30.1 | 29.5 | 25.9 | –
3 | O=C([O-])Cc1c[nH]c2ccccc12 [INDOLE-3-ACETATE] | 14.8 | 18.2 | 13.1 | 18.6 | 16.4 | 13.8 | 17.9 | – | 14.7 | – | 12.9 | 18.2 | 15.5 | 11.3 | – | –
4 | NC(=O)C1CCCN1C(=O)C(Cc1cnc[nH]1)NC(=O)C1CCC(=O)N1 (stereo not given) [THYROTROPIN RELEASING HORMONE] | 0.92 | 2.74 | 0.9 | 2.66 | 1.34 | 0.89 | 1.83 | 15.7 | – | 7.17 | – | – | 1.09 | – | – | LC retention time [17]: 2.67 min; LC retention time [18]: 1.38 min; LC retention time [19]: 2.7 min
5 | NC(=O)Cc1c[nH]c2ccccc12 [INDOLE-3-ACETAMIDE] | 11.4 | 15.4 | 9.92 | 15.6 | 13 | 11.1 | 14.5 | – | 11.6 | 11.9 | 9.85 | 15.2 | 12.1 | 15.6 | 11.7 | LC retention time [20]: 0.91 min; LC retention time [21]: 0.95 min; LC retention time [22]: 11.9 min
